Target: ASK1 kinase (Homo sapiens (Human), UniProt Q99683)
Test: HTRF KinEASE assay of ASK1 kinase activity inhibition
Type: biochemical
Conditions: 5 nM ASK1, 1 uM STK3 peptide substrate, 100 uM ATP, TR-FRET readout
Procedure: The ability (IC50) of compounds to inhibit ASK1 kinase activity was determined by HTRF® KinEASE™ Assay System. ASK1 was purchased from Thermofisher (Catalogue #PV4011), ATP was purchased from Sigma (Catalogue #A7699), HTRF® KinEASE™ Assay System was obtained from Cisbio (Bedford, Mass.). ½ Area plate was purchased from Perkin Elmer (Catalogue ##6005560). HTRF® KinEASE™-STK is a generic method for measuring serine/threonine kinase activities using a time-resolved fluorescence resonance energy transfer (TR-FRET) immunoassay. The IC50 value for each compound was determined in the presence of compound (various concentration from 0 to 10 μM) and a fixed amount of ATP and peptide substrates. The test compound, 1 uM STK3 peptide substrate, and 5 nM of ASK1 kinase are incubated with kinase reaction buffer containing 50 mM HEPES pH 7.5, 0.01% BRIJ-35, 10 mM MgCl2, and 1 mM EGTA for 30 minutes. 100 uM ATP is added to start kinase reaction and incubated for 3 hours. The STK3-antibody labeled with Eu^3+-Cryptate and 125 nM streptavidin-XL665 are mixed in a single addition with stop reagents provided by the Cisbio kit used to stop the kinase reaction. Fluorescence is detected using an Envision Multilabeled 2014 reader from PerkinElmer. The Fluorescence is measured at 615 nm (Cryptate) and 665 nm (XL665) and a ratio of 665 nm/615 nm is calculated for each well. The resulting TR-FRET is proportional to the phosphorylation level. Staurosporine was used as the positive control. IC50 was determined by XLfit 5.3. By using above method, the inhibition of ASK1 was tested for the compound of formula (I). IC50 ranges are as follows: A<1 nM; 1 nM<B<10 nM; 10 nM<C<100 nM; 100 nM<D<1 μM; E>1 μM.

Sequence of ASK1 kinase (Q99683 whole entry): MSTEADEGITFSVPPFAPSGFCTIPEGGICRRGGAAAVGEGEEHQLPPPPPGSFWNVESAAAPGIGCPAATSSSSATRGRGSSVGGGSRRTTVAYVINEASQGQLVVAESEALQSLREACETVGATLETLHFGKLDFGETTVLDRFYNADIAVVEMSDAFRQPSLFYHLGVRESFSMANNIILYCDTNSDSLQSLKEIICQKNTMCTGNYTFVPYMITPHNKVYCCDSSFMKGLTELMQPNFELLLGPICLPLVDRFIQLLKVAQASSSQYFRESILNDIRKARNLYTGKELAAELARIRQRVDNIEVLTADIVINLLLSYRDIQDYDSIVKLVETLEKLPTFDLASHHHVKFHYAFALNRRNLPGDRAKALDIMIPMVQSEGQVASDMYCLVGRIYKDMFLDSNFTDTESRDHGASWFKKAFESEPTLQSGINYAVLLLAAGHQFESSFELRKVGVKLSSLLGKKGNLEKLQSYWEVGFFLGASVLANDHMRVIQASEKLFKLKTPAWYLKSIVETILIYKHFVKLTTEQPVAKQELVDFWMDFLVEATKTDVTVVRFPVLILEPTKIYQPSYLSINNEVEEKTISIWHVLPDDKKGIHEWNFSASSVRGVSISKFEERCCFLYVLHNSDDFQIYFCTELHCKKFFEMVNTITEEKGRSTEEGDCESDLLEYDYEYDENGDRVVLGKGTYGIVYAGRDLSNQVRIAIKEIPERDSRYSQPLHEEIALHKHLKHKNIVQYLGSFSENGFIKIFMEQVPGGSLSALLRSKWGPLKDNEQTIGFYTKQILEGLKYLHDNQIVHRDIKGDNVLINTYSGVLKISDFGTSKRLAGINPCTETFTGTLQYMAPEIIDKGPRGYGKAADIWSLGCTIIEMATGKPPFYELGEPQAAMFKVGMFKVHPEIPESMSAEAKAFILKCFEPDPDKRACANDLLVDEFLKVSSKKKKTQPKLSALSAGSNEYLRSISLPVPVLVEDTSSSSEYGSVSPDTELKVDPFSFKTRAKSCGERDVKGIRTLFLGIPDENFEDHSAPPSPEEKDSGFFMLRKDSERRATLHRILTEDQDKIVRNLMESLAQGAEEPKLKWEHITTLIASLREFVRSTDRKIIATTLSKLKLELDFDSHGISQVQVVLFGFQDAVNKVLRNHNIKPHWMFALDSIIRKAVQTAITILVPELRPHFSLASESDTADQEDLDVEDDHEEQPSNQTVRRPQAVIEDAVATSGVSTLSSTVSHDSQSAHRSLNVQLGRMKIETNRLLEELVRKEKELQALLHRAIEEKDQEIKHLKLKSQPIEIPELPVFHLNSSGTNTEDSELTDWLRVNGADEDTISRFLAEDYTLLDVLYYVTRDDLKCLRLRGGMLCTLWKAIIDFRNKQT

Row | SMILES | IC50 [nM]
1 | Cc1cc(F)c(C(=O)Nc2cccc(-c3nnnn3[C@H](C)CO)n2)cc1-c1cnn(C(C)C)c1 [Example 50] | 1 to 10
2 | Cc1cnc(C(=O)Nc2cccc(-c3nnnn3C(C)C)n2)cc1-c1ccn(C(C)C)n1 [Example 33] | 10 to 100
3 | CC(C)n1nnnc1-c1nc(NC(=O)c2cc(-c3cnn(C4CC4)c3)c(C(F)(F)F)cn2)cs1 [Example 15] | 10 to 100
4 | COc1cc(C)c(-c2cnn(C)c2)cc1C(=O)Nc1cccc(-n2nnnc2C(C)C)n1 [Example 74] | 1 to 10
5 | Cc1cnc(C(=O)Nc2cccc(-c3nnnn3C(C)C)n2)cc1-c1cn(C(C)C)cn1 [Example 23] | 10 to 100
6 | Cc1cc(F)c(C(=O)Nc2cccc(-c3nnnn3[C@H](C)CO)n2)cc1-c1cnn(C2CC2)c1 [Example 47] | 1 to 10
7 | Cc1cc(F)c(C(=O)Nc2cccc(-c3nnnn3C(C)C)n2)cc1-c1ccccn1 [Example 64] | 100 to 1000
8 | C[C@H](CO)n1nnnc1-c1cccc(NC(=O)c2cc(-c3cnn(C4CC4)c3)c(C(F)(F)F)cn2)n1 [Example 16] | 1 to 10
9 | CC(C)n1nnnc1-c1cccc(NC(=O)c2cc(-c3cnn(C4CC4)c3)c(F)cn2)n1 [Example 3] | 10 to 100
10 | COc1cc(C)c(-c2ccn(C(C)C)n2)cc1C(=O)Nc1cccc(-n2nnnc2C(C)C)n1 [Example 79] | 10 to 100
11 | Cc1cnc(C(=O)Nc2cccc(-c3nnnn3[C@H](C)CO)n2)cc1-c1ccn(C(C)C)n1 [Example 35] | 1 to 10
12 | Cc1ncc(-c2cc(C(=O)Nc3cccc(-c4nnnn4C(C)C)n3)ncc2C)s1 [Example 39] | 1 to 10
13 | CC(C)n1nnnc1-c1nc(NC(=O)c2cc(-c3cnn(C4CC4)c3)c(N3CCOCC3)cn2)cs1 [Example 10] | 1 to 10
14 | Cc1cc(F)c(C(=O)Nc2cccc(-c3nnnn3[C@H](C)CO)n2)cc1-c1cnn(C(F)(F)F)c1 [Example 57] | 1 to 10
15 | Cc1cnc(C(=O)Nc2cccc(-c3nnnn3C(C)C)n2)cc1-c1cnn(C(F)(F)F)c1 [Example 30] | 10 to 100
16 | CC(C)n1nnnc1-c1cccc(NC(=O)c2cc(-c3cnn(C4CC4)c3)c(N3CCCC3)cn2)n1 [Example 4] | 10 to 100
17 | Cc1cc(F)c(C(=O)Nc2cccc(-n3nnnc3C(C)C)n2)cc1-c1cnn(C(F)(F)F)c1 [Example 56] | 100 to 1000

Reference: US11008304B2, “Tetrazole containing apoptosis signal-regulating kinase 1 inhibitors and methods of use thereof” (ENANTA PHARMACEUTICALS, INC., priority 2018, dated 2021)
